Laboratory results as given in US20050176813A1, “Novel chalcone derivatives and uses thereof” (priority 2002, published 2005).
Like-named read-outs stand apart in the source and are kept apart here.

Assays:
mice = test: Toxicity on intravenous injection into mice; format: in vivo
Kv1.5 = Kv1.5 (Homo sapiens, UniProt P22460); test: Kv1.5 channel block, estimated Kd (Table 1); format: binding
[1] = Cytotoxicity in vitro (remark in Table 1, summary of Table 2); format: cell-based; settings: for Cytotoxicity in-vitro (summary of Table 2): MEL and Jurkat cells; for Cytotoxicity (remark in Table 1): cells not given
Procedure: (§1) Jurkat E6-1 and MEL were seeded at 5×10^5 cells/ml in twelve-well plates. Drug (100 nM, 1 μM, 2.5 μM and 10 μM) was added in a final DMSO concentration of 0.1%. After 48 h of incubation, cells were harvested by sucking them off the plates. Cells were centrifuged, resuspended in 0.5 ml PBS containing 1 μg/ml propidium iodide (PI), and red fluorescence measured on a FACScan flow cytometer (Becton Dickinson) after 20 min (10^4 cells of every sample being analyzed). The percentage of dead cells was determined by their PI uptake. Incubation with 20% DMSO served as a control for setting the gates of the flow cytometer for dead cells.

MEL cells = test: Flow cytometric measurement of cell viability (PI uptake), MEL cells; format: cell-based; settings: 48 h
Procedure: (§2) Flow Cytometric Measurement of Cell Viability
as §1

Kv1.3 [2] = target: T1, Kv1.3 (Homo sapiens, UniProt P22001); test: Kv1.3 channel block, estimated Kd (Table 1); format: binding
T1 sequence (P22001 whole entry): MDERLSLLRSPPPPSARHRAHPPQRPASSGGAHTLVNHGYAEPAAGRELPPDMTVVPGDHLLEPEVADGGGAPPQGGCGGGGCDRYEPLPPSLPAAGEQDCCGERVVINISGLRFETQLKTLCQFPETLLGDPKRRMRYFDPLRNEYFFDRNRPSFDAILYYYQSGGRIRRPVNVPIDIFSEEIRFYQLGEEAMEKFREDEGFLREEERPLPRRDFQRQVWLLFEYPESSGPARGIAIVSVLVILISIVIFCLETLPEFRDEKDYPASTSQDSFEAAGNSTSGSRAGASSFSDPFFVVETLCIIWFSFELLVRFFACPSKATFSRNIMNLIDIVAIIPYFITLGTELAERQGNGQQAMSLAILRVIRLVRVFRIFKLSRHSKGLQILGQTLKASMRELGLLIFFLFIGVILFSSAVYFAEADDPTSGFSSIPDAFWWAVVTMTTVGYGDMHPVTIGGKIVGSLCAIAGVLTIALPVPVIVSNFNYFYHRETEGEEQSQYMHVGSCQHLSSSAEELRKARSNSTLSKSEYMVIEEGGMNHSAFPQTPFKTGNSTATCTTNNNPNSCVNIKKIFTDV

Jurkat E6-1 = test: Flow cytometric measurement of cell viability (PI uptake), Jurkat T-cells; format: cell-based; settings: 48 h
Procedure: as §2, §1

[3] = system: human peripheral blood lymphocytes; test: Proliferation test, [3H]-thymidine incorporation assay, anti-CD3 stimulated; format: cell-based; settings: for Antiproliferative potency compared with Example 1: FIG. 1; for EC50: Homo sapiens, Lymphocyte, anti-CD3 stimulation, 48 h, read-out: EC50, suppression of proliferation of human peripheral blood lymphocytes
Procedure: Proliferation Test [^3H]-Thymidine Incorporation Assay
Resting peripheral blood mononuclear cells from healthy volunteers were seeded at 2×10^5 cells per well in medium (RPMI 1640 supplemented 10% fetal calf serum, 2 mM glutamine, 1 mM sodium pyruvate, 1% nonessential amino acids, 100 units/ml penicillin, 100 μg/ml streptomycin and 50 μM β-mercaptoethanol) in flat-bottom 96 well plates (final volume 200 μl). Cells pre-incubated with drug (60 min), were stimulated with 5 ng/ml anti-CD3 Ab) for 48 h. [^3H]-Thymidine (1 μCi per well) was added for the last 6 h. Cells were harvested onto glass fibre filters and radioactivity measured in a scintillation counter. All experiments were done in triplicate. Results are reported as normalised for maximum [^3H]-thymidine incorporation for controls.

Kv1.3 [4] = target: T1, Kv1.3; settings: cited from earlier work
Kv1.7 = Kv1.7 (Homo sapiens, UniProt Q96RP8); test: Kv1.7 channel block, estimated Kd (Table 1); format: binding
Kv1.7, sequence (Q96RP8 whole entry): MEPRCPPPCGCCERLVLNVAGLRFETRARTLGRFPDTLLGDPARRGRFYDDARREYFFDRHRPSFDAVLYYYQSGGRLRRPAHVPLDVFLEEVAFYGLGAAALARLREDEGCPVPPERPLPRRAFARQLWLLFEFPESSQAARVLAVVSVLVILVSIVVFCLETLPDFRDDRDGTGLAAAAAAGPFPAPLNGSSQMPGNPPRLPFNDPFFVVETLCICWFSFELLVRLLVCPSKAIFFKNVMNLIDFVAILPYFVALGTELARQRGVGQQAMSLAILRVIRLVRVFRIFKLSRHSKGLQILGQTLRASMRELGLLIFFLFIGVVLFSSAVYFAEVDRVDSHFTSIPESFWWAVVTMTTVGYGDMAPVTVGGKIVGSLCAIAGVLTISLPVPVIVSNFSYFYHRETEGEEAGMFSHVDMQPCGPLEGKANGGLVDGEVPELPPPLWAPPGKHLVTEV

Kv1.1 = Kv1.1 (Homo sapiens, UniProt Q09470); test: Kv1.1 channel block, estimated Kd (Table 1); format: binding
Kv1.1, sequence (Q09470 whole entry): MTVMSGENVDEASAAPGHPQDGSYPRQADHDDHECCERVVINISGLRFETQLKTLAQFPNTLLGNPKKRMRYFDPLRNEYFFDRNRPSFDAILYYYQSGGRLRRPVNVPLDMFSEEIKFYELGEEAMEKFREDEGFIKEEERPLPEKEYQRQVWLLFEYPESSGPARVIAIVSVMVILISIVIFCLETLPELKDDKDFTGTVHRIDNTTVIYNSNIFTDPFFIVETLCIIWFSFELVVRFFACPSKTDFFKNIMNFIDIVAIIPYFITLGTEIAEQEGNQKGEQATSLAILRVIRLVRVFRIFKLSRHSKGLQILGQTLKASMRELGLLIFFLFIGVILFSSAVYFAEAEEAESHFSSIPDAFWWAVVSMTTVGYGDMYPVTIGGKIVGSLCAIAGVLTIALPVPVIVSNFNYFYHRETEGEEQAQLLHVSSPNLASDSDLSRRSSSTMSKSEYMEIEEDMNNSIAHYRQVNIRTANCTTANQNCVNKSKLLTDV

IK = IK (Homo sapiens, UniProt O15554); test: IK channel inhibition (Table 1); format: binding; settings: at 20 μM
[5] = injected intravenously, dose not stated
[6] = Kv1.5, end, read-out: Est. Kd, Kd end
[7] = Kv1.5, peak, read-out: Est. Kd, Kd peak
[8] = Kv1.3, area, read-out: Est. Kd, Kd area
[9] = Kv1.3, end, read-out: Est. Kd, Kd end
[10] = Kv1.3, peak, read-out: Est. Kd, Kd peak
[11] = Kv1.1, area, read-out: Est. Kd, Kd area
[12] = Kv1.1, end, read-out: Est. Kd, Kd end
[13] = Kv1.1, peak, read-out: Est. Kd, Kd peak

Kv1.5, sequence (P22460 whole entry): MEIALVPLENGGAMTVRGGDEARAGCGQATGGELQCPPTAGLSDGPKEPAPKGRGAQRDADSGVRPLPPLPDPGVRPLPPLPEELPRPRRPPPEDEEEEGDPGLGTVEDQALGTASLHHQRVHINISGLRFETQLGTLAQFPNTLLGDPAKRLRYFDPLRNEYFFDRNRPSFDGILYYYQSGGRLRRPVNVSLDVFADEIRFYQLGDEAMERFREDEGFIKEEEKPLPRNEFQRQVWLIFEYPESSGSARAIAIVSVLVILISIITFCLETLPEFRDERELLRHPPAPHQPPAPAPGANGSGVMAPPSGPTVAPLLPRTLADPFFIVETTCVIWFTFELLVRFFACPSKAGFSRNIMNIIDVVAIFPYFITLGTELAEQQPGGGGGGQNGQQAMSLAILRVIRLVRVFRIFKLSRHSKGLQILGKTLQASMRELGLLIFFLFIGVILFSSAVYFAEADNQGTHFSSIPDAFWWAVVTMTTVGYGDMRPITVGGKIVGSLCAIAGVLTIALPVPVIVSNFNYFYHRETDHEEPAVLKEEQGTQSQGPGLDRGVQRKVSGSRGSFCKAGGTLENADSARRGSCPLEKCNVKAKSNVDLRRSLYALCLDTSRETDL

SMILES | Cytotoxicity in-vitro (summary of Table 2) [1] | percentage of dead cells (PI uptake) (MEL cells; 100 nM) [%] | percentage of dead cells (PI uptake) (MEL cells; 1 μM) [%] | percentage of dead cells (PI uptake) (MEL cells; 2.5 μM) [%] | percentage of dead cells (PI uptake) (MEL cells; 10 μM) [%] | Kd (Kv1.3 [2]; [9]) [µM] | Kd (Kv1.3 [2]; [10]) [µM] | percentage of dead cells (PI uptake) (Jurkat E6-1; 100 nM) [%] | percentage of dead cells (PI uptake) (Jurkat E6-1; 1 μM) [%] | percentage of dead cells (PI uptake) (Jurkat E6-1; 2.5 μM) [%] | percentage of dead cells (PI uptake) (Jurkat E6-1; 10 μM) [%] | EC50 [3] [µM] | further results
COc1cccc(/C=C/C(=O)c2c(O)c(OC)c3occc3c2OC)c1 (single isomer, unassigned) [Example 24] | non-cytotoxic | 3.53 | 3.73 | 5.26 | 3.00 | 0.25 to 0.3 | 0.9 to 1.1 | 2.41 | 2.81 | 2.31 | 9.8 | 1 | Toxicity in mice (mice; [5]): non-toxic; Kd (Kv1.5; [6]): 6 µM; Kd (Kv1.5; [7]): 36 µM; Kd (Kv1.3 [2]; [8]): 0.8 µM; Antiproliferative potency compared with Example 1 [3]: even more potently antiproliferative
COc1c2occc2cc2ccc(=O)oc12 [8-Methoxypsoralen] |  |  |  |  |  |  |  |  |  |  |  |  | Blocking activity on the Kv1.3 channel (Kv1.3 [4]; background): blocking activity
COc1c(C(=O)/C=C/c2ccccc2)c(O)c(OC)c2occc12 [Example 1] | non-cytotoxic | 4.95 | 6.21 | 6.70 | 5.88 | 0.12 | 0.75 | 3.02 | 1.47 | 1.78 | 8.10 | 1 | Block phasic or not (Kv1.7; Kv1.7): phasic; Kd (Kv1.7; Kv1.7, end, read-out: Est. Kd, Kd end): 5 µM; Kd (Kv1.7; Kv1.7, peak, read-out: Est. Kd, Kd peak): 25 µM; Toxicity in mice (mice; 30 uM injected intravenously): non-toxic; Selectivity over Kv1.5 (Kv1.5; Kv1.3 over Kv1.5): Cinnamon needles. Selectivity over Kv1.5 is 25-fold. Mp 125-126; Kd (Kv1.1; [11]): 1.2 µM; Kd (Kv1.1; [12]): 0.7 µM; Kd (Kv1.1; [13]): 12 µM; IK inhibition (IK): no inhibition; Kd (Kv1.3 [2]; T-lymphocytes, read-out: Kd (dissociation constant), block of Kv1.3 voltage gated potassium channel in T-lymphocytes): 0.4 µM
COc1c(C(=O)/C=C/c2cccc(O)c2)c(O)c(OC)c2occc12 [Example 18] | non-cytotoxic | 6.89 | 3.60 | 6.98 | 4.41 | 0.25 | 5 | 2.57 | 2.22 | 2.59 | 4.70 | 0.5 | Kd (Kv1.7; Kv1.7, time-independent, read-out: Est. Kd): 50 µM; Toxicity in mice (mice; [5]): non-toxic; Kd (Kv1.5; [6]): 10 µM; Kd (Kv1.5; [7]): 16 µM; Kd (Kv1.1; [11]): 1.7 µM; Kd (Kv1.1; [12]): 1 µM; Kd (Kv1.1; [13]): 15 µM; Kd (Kv1.3 [2]; [8]): 0.7 µM; Antiproliferative potency compared with Example 1 [3]: even more potently antiproliferative
COc1c(C(=O)/C=C/c2cc(Br)cs2)c(O)c(OC)c2occc12 [Example 54] |  |  |  |  |  | 0.25 | 4 |  |  |  |  |  | Cytotoxicity (remark in Table 1) [1]: Cytotoxic Mp 139 Brown needles
COc1c(C(=O)/C=C/c2ccc(C)s2)c(O)c(OC)c2occc12 [Example 55] |  |  |  |  |  | 0.5 | 3 |  |  |  |  |  | Cytotoxicity (remark in Table 1) [1]: Cytotoxic Mp 103 Orange prisms
COc1c(C(C)=O)c(O)c(OC)c2occc12 [khellinone] |  |  |  |  |  |  |  |  |  |  |  |  | Blocking activity on the Kv1.3 channel (Kv1.3 [4]): blocking activity
